Measured values published in patent US9266835B2, “Quinoline derivatives useful as CB-1 inverse agonists” (JANSSEN PHARMACEUTICA NV, priority 2014, dated 2016).

Columns and labels:
[1] = biological target: Human CB1R (Cannabinoid receptor 1) (Homo sapiens (Human), UniProt P21554); experiment: CB-1 in vitro cAMP assay (HTRF), inverse agonism; type: cell-based; conditions: mean where tested more than once
[2] = biological target: Human CB2R (Cannabinoid receptor 2) (Homo sapiens (Human), UniProt P34972); experiment: CB-2 in vitro cAMP assay (HTRF), inverse agonism; type: cell-based; conditions: mean where tested more than once
Human CB2R (Cannabinoid receptor 2), sequence (P34972 whole entry): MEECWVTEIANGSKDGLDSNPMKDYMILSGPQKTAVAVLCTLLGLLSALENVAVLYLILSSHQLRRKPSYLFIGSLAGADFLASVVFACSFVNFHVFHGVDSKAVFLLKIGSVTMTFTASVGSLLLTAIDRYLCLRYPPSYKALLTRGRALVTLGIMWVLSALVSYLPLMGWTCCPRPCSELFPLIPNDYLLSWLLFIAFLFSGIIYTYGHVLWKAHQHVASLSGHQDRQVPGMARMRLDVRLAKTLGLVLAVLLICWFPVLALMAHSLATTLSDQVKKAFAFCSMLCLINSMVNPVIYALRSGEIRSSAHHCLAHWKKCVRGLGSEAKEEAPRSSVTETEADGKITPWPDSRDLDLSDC

Human CB1R (Cannabinoid receptor 1), sequence (P21554 whole entry): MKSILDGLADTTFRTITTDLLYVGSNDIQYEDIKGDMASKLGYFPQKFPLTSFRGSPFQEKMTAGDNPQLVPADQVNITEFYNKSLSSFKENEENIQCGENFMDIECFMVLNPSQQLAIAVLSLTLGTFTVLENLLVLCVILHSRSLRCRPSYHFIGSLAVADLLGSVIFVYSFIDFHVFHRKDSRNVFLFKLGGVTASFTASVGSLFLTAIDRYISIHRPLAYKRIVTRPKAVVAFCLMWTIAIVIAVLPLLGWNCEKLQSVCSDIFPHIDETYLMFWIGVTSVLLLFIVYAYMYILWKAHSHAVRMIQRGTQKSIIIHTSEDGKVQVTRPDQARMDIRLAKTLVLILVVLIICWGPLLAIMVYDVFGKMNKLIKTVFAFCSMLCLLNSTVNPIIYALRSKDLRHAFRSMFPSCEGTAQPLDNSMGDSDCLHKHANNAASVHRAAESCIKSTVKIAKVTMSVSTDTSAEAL

`CC(C)S(=O)(=O)N1CCC(Nc2cc(=O)[nH]c3ccc(C(c4ccc(Cl)cc4)c4nccs4)cc23)CC1` (stereo not shown) [Compound 40, 6-[(4-Chlorophenyl)(1,3-thiazol-2-yl)methyl]-4-({1-[(1-methylethyl)sulfonyl]piperidin-4-yl}amino)quinolin-2(1H)-one] was tested, and the EC50 [1] was 204 nM and the EC50 [2] was greater than 10000 nM.

`OC(c1ccc(Cl)cc1)(c1ccc2nccc(/C=C\c3ccccc3)c2c1)c1cscn1` (mixture of isomers) [Compound 516, (Z)-(4-chlorophenyl)(4-styrylquinolin-6-yl)(thiazol-4-yl)methanol] was tested, and the EC50 [1] was 3270 nM and the EC50 [2] was 200 nM.

`O=c1cc(NC2CCN(S(=O)(=O)C(F)(F)F)CC2)c2cc(C(c3ccc(F)cc3)c3ccc(Cl)cc3)ccc2[nH]1` (stereo not shown) [Compound 52, 6-[(4-Chlorophenyl)(4-fluorophenyl)methyl]-4-({1-[(trifluoromethyl)sulfonyl]-piperidin-4-yl}amino)quinolin-2(1H)-one] was tested, and the EC50 [1] was 23 nM and the EC50 [2] was 7100 nM.

`O=C1CCCN1c1cc(C(c2ccc(Cl)cc2)c2ccc(Cl)cc2)cc2c(NC3CCN(S(=O)(=O)C(F)(F)F)CC3)cc(=O)[nH]c12` [Compound 107, 6-(bis(4-chlorophenyl)methyl)-8-(2-oxopyrrolidin-1-yl)-4-((1-((trifluoromethyl)sulfonyl)piperidin-4-yl)amino)quinolin-2(1H)-one] showed an EC50 [1] of 52 nM and an EC50 [2] of 670 nM.

`COCCOc1ccc(Nc2cc(=O)[nH]c3ccc(C(c4ccc(Cl)cc4)c4ccc(Cl)cc4)cc23)cc1` [Compound 94, 6-[Bis(4-chlorophenyl)methyl]-4-{[4-(2-methoxyethoxy)phenyl]-amino}quinolin-2(1H)-one] showed an EC50 [1] of 55 nM and an EC50 [2] greater than 10000 nM.

With `O=c1cc(/C=C/c2ccc(C(F)(F)F)cc2)c2cc(C(c3ccc(Cl)cc3)c3ccc(Cl)s3)ccc2[nH]1` (stereo not shown) [Compound 29, 6-[(4-Chlorophenyl)(5-chlorothiophen-2-yl)methyl]-4-{(E)-2-[4-(trifluoromethyl)phenyl]-ethenyl}quinolin-2(1H)-one] the EC50 [1] was 759 nM and the EC50 [2] was greater than 10000 nM.

Compound `CC(C)(C)OC(=O)N1CC[C@@H](Nc2cc(=O)[nH]c3ccc(C(c4ccc(Cl)cc4)c4nccs4)cc23)C1` (stereo partly drawn) [Compound 46, tert-Butyl (3R)-3-({6-[(4-chlorophenyl)(1,3-thiazol-2-yl)methyl]-2-oxo-1,2-dihydroquinolin-4-yl}amino)pyrrolidine-1-carboxylate] has an EC50 [1] of 657 nM and an EC50 [2] greater than 10000 nM.

`CCOC(=O)N1CCC(Nc2cc(=O)[nH]c3ccc(C(c4ccc(Cl)cc4)c4nccs4)cc23)CC1` (stereo not shown) [Compound 37, Ethyl 4-({6-[(4-chlorophenyl)(1,3-thiazol-2-yl)methyl]-2-oxo-1,2-dihydroquinolin-4-yl}amino)piperidine-1-carboxylate] gave an EC50 [1] of 19 nM and an EC50 [2] greater than 10000 nM.

Compound `COc1ccc(C(c2ccc3nccc(/C=C/c4ccccc4)c3c2)c2nccs2)cc1` (stereo not shown) [Compound 505, (E)-2-((4-methoxyphenyl)(4-styrylquinolin-6-yl)methyl)thiazole] has an EC50 [1] of 326 nM and an EC50 [2] greater than 10000 nM.

In the case of `O=c1cc(Nc2ccc(-c3ccccc3)cc2)c2cc(C(c3ccc(Cl)cc3)c3ccc(Cl)cc3)ccc2[nH]1` [Compound 133, 4-(Biphenyl-4-ylamino)-6-[bis(4-chlorophenyl)methyl]-quinolin-2(1H)-one], the EC50 [1] is reported as 73 nM and the EC50 [2] is reported as greater than 10000 nM.

`CCCCNc1cc(C(c2ccc(Cl)cc2)c2ccc(Cl)cc2)cc2c(NC3CCN(S(=O)(=O)C(F)(F)F)CC3)cc(=O)n(C)c12` [Compound 139, 6-[bis(4-chlorophenyl)methyl]-8-(butylamino)-1-methyl-4-[[1-(trifluoromethane)sulfonylpiperidin-4-yl]amino]-1,2-dihydroquinolin-2-one] showed an EC50 [1] greater than 10000 nM and an EC50 [2] greater than 10000 nM.

Compound `COc1ccc(C(O)(c2ccc3nccc(/C=C/c4ccccc4)c3c2)c2nccs2)cc1` (stereo not shown) [Compound 504, (E)-(4-methoxyphenyl)(4-styrylquinolin-6-yl)(thiazol-2-yl)methanol] has an EC50 [1] of 342 nM and an EC50 [2] greater than 10000 nM.

Compound `O=C(O)CC(=O)N1CCC(Nc2cc(=O)[nH]c3ccc(C(c4ccc(Cl)cc4)c4ccc(Cl)cc4)cc23)CC1` [Compound 96, 3-[4-({6-[Bis(4-chlorophenyl)methyl]-2-oxo-1,2-dihydroquinolin-4-yl}amino)piperidin-1-yl]-3-oxopropanoic acid] has an EC50 [1] of 220 nM and an EC50 [2] greater than 10000 nM.

Compound `O=c1cc(/C=C/c2ccc(Cl)cc2)c2cc(C(c3ccccc3)c3ccc(Cl)cc3)ccc2[nH]1` (stereo not shown) [Compound 34, 4-[(E)-2-(4-Chlorophenyl)ethenyl]-6-[(4-chlorophenyl)(phenyl)methyl]quinolin-2(1H)-one] has an EC50 [1] of 1460 nM and an EC50 [2] greater than 10000 nM.

`CC(C)(C)OC(=O)N1CC=C(c2ccnc3ccc(C(c4ccc(Cl)cc4)c4nccs4)cc23)CC1` (stereo not shown) [Compound 513, tert-butyl 4-(6-((4-chlorophenyl)(thiazol-2-yl)methyl)quinolin-4-yl)-5,6-dihydropyridine-1(2H)-carboxylate] was tested, and the EC50 [1] was 1500 nM and the EC50 [2] was greater than 10000 nM.

For `Cn1c(=O)cc(CCc2cccc(Cl)c2)c2cc(C(c3ccc(Cl)cc3)c3nccs3)ccc21` (stereo not shown) [Compound 9, 4-(3-chlorophenethyl)-6-((4-chlorophenyl)(thiazol-2-yl)methyl)-1-methylquinolin-2(1H)-one], the EC50 [1] was 169 nM and the EC50 [2] was greater than 10000 nM.

With `O=C(N1CC=C(c2cc(=O)[nH]c3ccc(C(c4ccc(Cl)cc4)c4ccc(Cl)cc4)cc23)CC1)C(F)(F)F` [Compound 14, 6-(bis(4-chlorophenyl)methyl)-4-(1-(2,2,2-trifluoroacetyl)-1,2,3,6-tetrahydropyridin-4-yl)quinolin-2(1H)-one] the EC50 [1] was 254 nM and the EC50 [2] was greater than 10000 nM.

For `O=C(O)CCN1CCC(Nc2cc(=O)[nH]c3ccc(C(c4ccc(Cl)cc4)c4ccc(Cl)cc4)cc23)CC1` [Compound 115, 3-[4-({6-[Bis(4-chlorophenyl)methyl]-2-oxo-1,2-dihydroquinolin-4-yl}amino)piperidin-1-yl]propanoic acid], the EC50 [1] was greater than 10000 nM and the EC50 [2] was greater than 10000 nM.

Work on `O=c1cc(NC2CCN(S(=O)(=O)C(F)(F)F)CC2)c2cc(C(c3ccc(Cl)cc3)c3ccc4c(c3)OCO4)ccc2[nH]1` (stereo not shown) [Compound 55, 6[1,3-Benzodioxo1-5-yl(4-chlorophenyl)methyl]-4-({1-[(trifluoromethyl)sulfonyl]-piperidin-4-yl}amino)quinolin-2(1H)-one] yielded an EC50 [1] of 10 nM and an EC50 [2] of 840 nM.

Work on `O=c1cc(NC2CCN(S(=O)(=O)C(F)(F)F)CC2)c2cc(C(c3ccc(Cl)cc3)c3ccc(Cl)nc3)ccc2[nH]1` (stereo not shown) [Compound #72, 6-[(4-chlorophenyl)(6-chloropyridin-3-yl)methyl]-4-[[1-(trifluoromethane)sulfonylpiperidin-4-yl]amino]-1,2-dihydroquinolin-2-one] yielded an EC50 [1] of 11 nM and an EC50 [2] of 6600 nM.

`O=c1cc(NC2CCN(S(=O)(=O)C(F)(F)F)CC2)c2cc(C(c3ccc(Cl)cc3)N3CCN(c4ccccc4)CC3)ccc2[nH]1` (stereo not shown) [Compound 137, 6-((4-chlorophenyl)(4-phenylpiperazin-1-yl)methyl)-4-((1-((trifluoromethyl)sulfonyl)piperidin-4-yl)amino)quinolin-2(1H)-one] showed an EC50 [1] of 290 nM and an EC50 [2] greater than 10000 nM.

In the case of `COc1ccc(C(O)(c2ccc(Cl)cc2)c2ccc3[nH]c(=O)cc(NC4CCN(S(=O)(=O)C(F)(F)F)CC4)c3c2)cc1` (stereo not shown) [Compound 51, 6-[(4-chlorophenyl)(hydroxy)(4-methoxyphenyl)methyl]-4-[[1-(trifluoromethane)sulfonylpiperidin-4-yl]amino]-1,2-dihydroquinolin-2-one], the EC50 [1] is reported as 29 nM and the EC50 [2] is reported as 8280 nM.

With `Clc1ccc(C(c2ccc3nccc(/C=C/c4ccccc4)c3c2)c2cccs2)cc1` (stereo not shown) [Compound 508, 6-[(4-Chlorophenyl)(thiophen-2-yl)methyl]-4-[(E)-2-phenylethenyl]quinoline] the EC50 [1] was 375 nM and the EC50 [2] was greater than 10000 nM.

`O=c1cc(NCc2ccc(C(F)(F)F)cc2)c2cc(C(c3ccc(Cl)cc3)c3ccc(Cl)cc3)ccc2[nH]1` [Compound 58, 6-[Bis(4-chlorophenyl)methyl]-4-{[4-(trifluoromethyl)benzyl]amino}-quinolin-2(1H)-one] showed an EC50 [1] of 45 nM and an EC50 [2] greater than 10000 nM.

`O=C(O)c1ccc(CN2CCC(Nc3cc(=O)[nH]c4ccc(C(c5ccc(Cl)cc5)c5ccc(Cl)cc5)cc34)CC2)cc1` [Compound 127, 4-{[4-({6-[Bis(4-chlorophenyl)methyl]-2-oxo-1,2-dihydroquinolin-4-yl}amino)piperidin-1-yl]methyl}benzoic acid] showed an EC50 [1] of 876 nM and an EC50 [2] greater than 10000 nM.

Compound `CCOC(=O)CCC(=O)N1CCC(Nc2cc(=O)[nH]c3ccc(C(c4ccc(Cl)cc4)c4ccc(Cl)cc4)cc23)CC1` [Compound 97, ethyl 4-[4-([6-[bis(4-chlorophenyl)methyl]-2-hydroxyquinolin-4-yl]amino)piperidin-1-yl]-4-oxobutanoate] has an EC50 [1] of 31 nM and an EC50 [2] of 9900 nM.

`COCCNc1ccc(C(c2ccc(Cl)cc2)c2cc(NCCOC)c3[nH]c(=O)cc(NC4CCN(S(=O)(=O)C(F)(F)F)CC4)c3c2)cc1` (stereo not shown) [Compound 101, 6-((4-chlorophenyl)(4-((2-methoxyethyl)amino)phenyl)methyl)-8-((2-methoxyethyl)amino)-4-((1-((trifluoromethyl)sulfonyl)piperidin-4-yl)amino)quinolin-2(1H)-one] showed an EC50 [1] of 15 nM and an EC50 [2] of 910 nM.

With `O=c1cc(NC2CCN(S(=O)(=O)C(F)(F)F)CC2)c2cc(C(O)(c3ccc(Cl)cc3)c3ccc(Cl)cc3)ccc2[nH]1` [Compound 73, 6-[Bis(4-chlorophenyl)(hydroxy)methyl]-4-({1-[(trifluoromethyl)sulfonyl]-piperidin-4-yl}amino)quinolin-(1H)-one] the EC50 [1] was 52 nM and the EC50 [2] was 5400 nM.

With `O=c1cc(NCc2cccc(C(F)(F)F)c2)c2cc(C(c3ccc(Cl)cc3)c3ccc(Cl)cc3)ccc2[nH]1` [Compound #61, 6-(bis(4-chlorophenyl)methyl)-4-((3-(trifluoromethyl)benzyl)amino)quinolin-2(1H)-one] the EC50 [1] was 7 nM and the EC50 [2] was 1810 nM.
